# What was measured:
# [1] = target: T1, Protein deacetylase HDAC6 (Homo sapiens, UniProt Q9UBN7); experiment: Inhibition of HDAC6 (unknown origin)
# T1 sequence (Q9UBN7 whole entry): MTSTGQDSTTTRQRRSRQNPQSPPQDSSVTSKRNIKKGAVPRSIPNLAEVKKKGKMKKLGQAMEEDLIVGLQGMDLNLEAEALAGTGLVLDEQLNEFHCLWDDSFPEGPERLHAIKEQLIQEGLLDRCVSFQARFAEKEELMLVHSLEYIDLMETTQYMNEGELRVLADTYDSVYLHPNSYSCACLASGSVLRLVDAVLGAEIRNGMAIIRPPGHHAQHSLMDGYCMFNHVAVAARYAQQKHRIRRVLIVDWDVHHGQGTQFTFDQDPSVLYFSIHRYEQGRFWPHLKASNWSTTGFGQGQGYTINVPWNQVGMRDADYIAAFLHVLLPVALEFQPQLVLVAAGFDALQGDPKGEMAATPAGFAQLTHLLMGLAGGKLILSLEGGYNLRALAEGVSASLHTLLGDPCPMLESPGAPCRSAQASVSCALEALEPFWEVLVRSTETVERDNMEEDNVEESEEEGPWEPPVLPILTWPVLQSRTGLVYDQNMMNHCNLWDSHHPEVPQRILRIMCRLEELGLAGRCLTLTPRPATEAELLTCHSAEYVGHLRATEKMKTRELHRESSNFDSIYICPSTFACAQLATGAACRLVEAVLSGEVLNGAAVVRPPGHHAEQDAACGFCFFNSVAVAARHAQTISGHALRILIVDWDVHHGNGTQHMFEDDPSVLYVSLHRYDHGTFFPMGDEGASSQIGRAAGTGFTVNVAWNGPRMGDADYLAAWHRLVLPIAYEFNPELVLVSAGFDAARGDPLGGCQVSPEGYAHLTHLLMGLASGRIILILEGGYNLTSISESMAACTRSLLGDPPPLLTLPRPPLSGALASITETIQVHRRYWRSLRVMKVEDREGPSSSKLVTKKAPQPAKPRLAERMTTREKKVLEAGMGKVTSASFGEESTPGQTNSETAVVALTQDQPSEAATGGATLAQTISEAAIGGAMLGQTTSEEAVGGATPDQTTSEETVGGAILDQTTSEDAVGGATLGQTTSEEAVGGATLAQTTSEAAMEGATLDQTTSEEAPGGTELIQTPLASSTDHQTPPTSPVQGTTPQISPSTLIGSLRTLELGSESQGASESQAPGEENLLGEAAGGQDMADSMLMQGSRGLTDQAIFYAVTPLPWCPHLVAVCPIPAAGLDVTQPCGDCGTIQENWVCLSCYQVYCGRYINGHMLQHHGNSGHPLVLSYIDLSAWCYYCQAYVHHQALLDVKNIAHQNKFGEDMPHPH
# A549 = experiment: Antiproliferative activity against human A549 cells
# HepG2 = experiment: Antiproliferative activity against human HepG2 cells; type: functional, cell-based
# Histone deacetylase 1 = Histone deacetylase 1 (Homo sapiens, UniProt Q13547); experiment: Inhibition of HDAC1 (unknown origin)
# HT-29 = experiment: Antiproliferative activity against human HT-29 cells; type: functional, cell-based
# [2] = Cytotoxicity against human L02 cells; type: toxicity, cell-based
# [3] = Cytotoxicity against human NCM460 cells; type: toxicity, cell-based
# HCT-116 = experiment: cells; details: Homo sapiens
# Description: Antiproliferative activity against human HCT-116 cells
# BE(2)-C [4] = experiment: Antitumor activity against human BE2C cells xenografted in mouse assessed as tumor growth inhibition at 5 mg/kg, ip relative to control; type: functional; details: read-out: TGI
# BE(2)-C [5] = experiment: Antitumor activity against human BE2C cells xenografted in mouse assessed as tumor growth inhibition at 5 mg/kg, ip in presence of 50 mg/kg vorinostat relative to control; type: functional; details: read-out: TGI
# PC-3 = experiment: cells; type: functional; details: Homo sapiens, time 96 hrs
# Histone deacetylase = experiment: Inhibition of HDAC in human HeLa cell nuclear extract using Boc-Lys(Ac)-AMC as substrate preincubated for 15 mins followed by substrate addition and measured after 60 mins by fluorescence based analysis; type: subcellular, Nucleus
# [6] = target: MAP kinase-interacting serine/threonine-protein kinase 1 (Homo sapiens) (UniProt Q9BUB5); experiment: Inhibition of MNK1 (unknown origin) at 1 uM incubated for 60 mins by HTRF assay relative to control
# [7] = target: MAP kinase-interacting serine/threonine-protein kinase 2 (Homo sapiens) (UniProt Q9HBH9); experiment: Inhibition of MNK2 (unknown origin) at 1 uM incubated for 60 mins by HTRF assay relative to control
# U-87 MG = experiment: Antitumor activity against luciferase-transferred human U-87 MG cells xenografted in athymic nude mouse assessed as survival time at 150 mg/kg, po measured for 20 days; type: functional, U-87MG ATCC; details: time 20 day
# C6 = experiment: Antitumor activity against rat C6 cells allografted in Sprague-Dawley rat assessed as survival time at 150 mg/kg, po measured for 20 days; type: functional; details: time 20 day
# RPMI-8226 [8] = experiment: Antiproliferative activity against human RPMI-8226 cells assessed as inhibition of cell growth incubated for 48 hrs by MTT assay; type: functional, cell-based; details: RPMI-8226, 48 h
# U-266 = experiment: cells; type: functional, cell-based; details: Homo sapiens, U-266, 48 h
# MM1.S = experiment: Antiproliferative activity against human MM1.S cells assessed as inhibition of cell growth incubated for 48 hrs by MTT assay; type: functional, cell-based
# [9] = Cytotoxicity against HEK293 cells assessed as inhibition of cell growth incubated for 48 hrs by MTT assay; type: toxicity, cell-based; details: human
# [10] = Cytotoxicity against human L02 cells assessed as inhibition of cell growth incubated for 48 hrs by MTT assay; type: toxicity, cell-based
# [11] = target: T1, Protein deacetylase HDAC6; experiment: Inhibition of HDAC6 (unknown origin) using Boc-Lys(acetyl)-AMC as substrate preincubated for 5 mins followed by substrate addition and measured after 30 mins by fluorescence based assay
# [12] = Metabolic stability in mouse liver microsomes assessed as half life at 1 uM incubated in presence of NADPH by LC-MS/MS analysis; type: ADME, Microsome
# RPMI-8226 [13] = experiment: Antitumor activity against human RPMI-8226 cells xenografted in BALB/c-nu mouse assessed as reduction in tumor growth by measuring relative increment ratio T/C at 50 mg/kg/day, ip administered for 19 days and measured every 3 days by vernier caliper relative to control; type: functional; details: time 19 day
# Chain of Histone deacetylase 1 (Q13547 whole entry): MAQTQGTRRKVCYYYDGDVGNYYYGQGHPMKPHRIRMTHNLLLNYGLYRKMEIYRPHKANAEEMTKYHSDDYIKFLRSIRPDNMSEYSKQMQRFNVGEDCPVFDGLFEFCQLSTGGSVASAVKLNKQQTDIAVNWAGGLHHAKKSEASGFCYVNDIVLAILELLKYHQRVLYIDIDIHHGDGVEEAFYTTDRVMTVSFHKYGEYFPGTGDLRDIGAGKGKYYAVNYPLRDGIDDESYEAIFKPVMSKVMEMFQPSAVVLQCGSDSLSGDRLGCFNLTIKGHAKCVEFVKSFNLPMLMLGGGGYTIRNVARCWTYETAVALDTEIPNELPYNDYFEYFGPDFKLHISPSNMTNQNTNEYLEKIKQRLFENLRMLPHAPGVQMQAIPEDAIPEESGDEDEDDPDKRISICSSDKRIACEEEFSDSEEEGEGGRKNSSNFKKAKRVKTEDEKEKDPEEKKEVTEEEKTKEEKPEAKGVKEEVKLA
# Chain of MAP kinase-interacting serine/threonine-protein kinase 2 (Homo sapiens) (Q9HBH9 whole entry, looked up): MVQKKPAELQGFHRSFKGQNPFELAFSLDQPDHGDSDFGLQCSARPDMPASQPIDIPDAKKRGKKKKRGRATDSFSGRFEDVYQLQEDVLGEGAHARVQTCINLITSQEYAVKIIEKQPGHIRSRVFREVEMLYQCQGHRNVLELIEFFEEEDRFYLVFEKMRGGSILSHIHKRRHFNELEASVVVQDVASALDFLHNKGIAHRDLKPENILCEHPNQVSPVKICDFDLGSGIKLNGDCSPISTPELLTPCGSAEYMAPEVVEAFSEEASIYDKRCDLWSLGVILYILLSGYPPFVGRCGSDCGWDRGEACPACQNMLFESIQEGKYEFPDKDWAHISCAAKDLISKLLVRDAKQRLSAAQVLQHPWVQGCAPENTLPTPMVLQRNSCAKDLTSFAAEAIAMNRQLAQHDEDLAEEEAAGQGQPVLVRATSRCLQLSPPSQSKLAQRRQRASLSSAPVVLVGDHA
# Chain of MAP kinase-interacting serine/threonine-protein kinase 1 (Homo sapiens) (Q9BUB5 whole entry, looked up): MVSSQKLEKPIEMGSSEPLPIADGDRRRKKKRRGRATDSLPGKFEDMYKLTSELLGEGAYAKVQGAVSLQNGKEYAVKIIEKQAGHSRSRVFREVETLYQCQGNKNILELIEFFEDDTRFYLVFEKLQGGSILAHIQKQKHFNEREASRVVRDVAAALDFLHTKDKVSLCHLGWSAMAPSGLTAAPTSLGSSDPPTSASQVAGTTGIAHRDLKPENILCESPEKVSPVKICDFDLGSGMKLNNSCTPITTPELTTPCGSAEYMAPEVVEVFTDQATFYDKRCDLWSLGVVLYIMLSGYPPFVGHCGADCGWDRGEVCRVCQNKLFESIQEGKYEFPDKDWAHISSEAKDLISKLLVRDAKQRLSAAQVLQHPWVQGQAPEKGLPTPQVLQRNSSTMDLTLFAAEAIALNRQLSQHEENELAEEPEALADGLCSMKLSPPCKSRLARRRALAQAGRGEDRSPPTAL
smiles,measurement,setting,value
COc1ccc2c3ccnc(C)c3n(CC3CCN(c4ncc(C(=O)NO)cn4)CC3)c2c1,IC50,[1],0.45 µM
same,IC50,A549,1.41 µM
same,IC50,HepG2,1.41 µM
same,IC50,Histone deacetylase 1,0.022 µM
same,IC50,HT-29,1.41 µM
same,IC50,[2],11.3 µM
same,IC50,[3],18.5 µM
same,IC50,HCT-116,1.41 µM
CC(=O)O[C@H]1C(=O)[C@@]2(C)[C@H]([C@H](OC(=O)c3ccccc3)[C@]3(O)C[C@H](OC(=O)[C@H](O)[C@@H](NC(=O)c4ccccc4)c4ccccc4)C(C)=C1C3(C)C)[C@]1(OC(C)=O)CO[C@@H]1C[C@@H]2O [PACLITAXEL],inhibition in vivo at 5 mg/kg,BE(2)-C [4],30%
same,inhibition in vivo at 5 mg/kg,BE(2)-C [5],44%
O=C(CCCCCCC(=O)Nc1ccc2ncnc(Nc3ccc(F)cc3)c2n1)NO,GI50,PC-3,2.91 µM
same,IC50,Histone deacetylase,0.78 µM
same,inhibition,[6],54%
same,inhibition,[7],70%
O=C(CCCCCCC(=O)Nc1ccccc1)NO [VORINOSTAT],Survival,U-87 MG,13 days
same,Survival,C6,13 days
O=C(NO)c1ccc(CNc2ncnc3[nH]ccc23)cc1,IC50,RPMI-8226 [8],0.62 µM
same,IC50,U-266,0.62 µM
same,IC50,MM1.S,0.62 µM
same,IC50 at 48 h,[9],> 50 µM
same,IC50 at 48 h,[10],> 50 µM
same,IC50,[11],0.01 µM
same,half-life at 1 µM,[12],> 1 h
same,T/C,RPMI-8226 [13],70%

# Source: ChEMBL document CHEMBL5614367, “Hydroxamic acid hybrids: Histone deacetylase inhibitors with anticancer therapeutic potency” (Eur J Med Chem, 2023)
